Counter-ions that a name gives are not always drawn.
Experiments:
[1] = PAMPA with synthetic phospholipid membrane, octyl chain (C8); assay type: in vitro ADME; settings: for Papp at 16 h: PAMPA, read-out: P e
Experimental: (§1) In PAMPA, a “sandwich” structure was formed by a 96-well microtiter plate and a 96-well filter plate from Millipore (IPVH, 125 μm thick filter, 0.45 μm pore), then wetted with a 4 μl 2% w/v phospholipid compound solution in n-dodecane [27].
(§2) The stock solutions of the drug samples were prepared at 10 mM concentrations in DMSO and stored at 0°C before use. Before being added to a 96-well filter plate, the stock solution was diluted first with buffer to achieve a final sample concentration of 10∼50 μM and to reduce the DMSO concentration below 1% (v/v).
(§3) The PAMPA plate was filled with a 300 μl diluted drug solution to prepare the “donor” wells, and the 96-well filter plate containing a synthetic phospholipid membrane was then placed on the donor wells. The “acceptor” wells were filled with 200 μl of buffer solution and placed on top of the “sandwich”, and the PAMPA instruments were incubated at 25°C in a sealed and saturated humidity container for a specified time. After reaching the permeation time, the PAMPA plate sandwich was separated, and the amount of drugs in both the donor and acceptor compartments were measured by comparing the experimental spectra with the UV spectrum (220∼400 nm) obtained from reference standards.
(§4) The factor S was the fraction of samples remaining in the donor and the acceptor wells at time t.
(§5) In the incubation time assays, the pH was 7.4 in both the donor and acceptor wells. In the pH-gradient assays, the pH of the drug solutions was varied using NaOH-treated universal buffer (pION Inc.) in the donor wells, and the pH in the acceptor solution was pH 7.4 [15]. In addition, the incubation time in the pH-gradient test assays was 16 h.

[2] = PAMPA with synthetic phospholipid membrane, decyl chain (C10); assay type: in vitro ADME; settings: for Papp at 16 h: PAMPA, read-out: P e
Experimental: as §1, §2, §3, §4, §5

[3] = PAMPA with synthetic phospholipid membrane, lauryl chain (C12); assay type: in vitro ADME; settings: for Papp at 16 h: PAMPA, read-out: P e
Experimental: as §1, §2, §3, §4, §5

[4] = set-up: method as in DrugBank database; settings: ref DrugBank database; cited from earlier work
[5] = set-up: method as in Chinese Pharmacopoeia, 2005 edition and references 15, 27, 38; settings: ref Chinese Pharmacopoeia, 2005 edition and references 15, 27, 38; cited from earlier work
[6] = set-up: method as in PMID 11576780, PMID 9691477; settings: cited from earlier work
[7] = C8, donor pH 6.57, acceptor pH 7.4, 16 h
[8] = C8, donor pH 8.2, acceptor pH 7.4, 16 h
[9] = C8, donor pH 4.6, acceptor pH 7.4, 16 h
[10] = C8, donor pH 4.98, acceptor pH 7.4, 16 h
[11] = C8, donor pH 9.32, acceptor pH 7.4, 16 h
[12] = pH 7.4, C8 membrane, incubation time 16 h, pH 7.4 donor and acceptor, 25°C
[13] = C10, donor pH 4.6, acceptor pH 7.4, 16 h
[14] = C10, donor pH 6.57, acceptor pH 7.4, 16 h
[15] = C10, donor pH 4.98, acceptor pH 7.4, 16 h
[16] = C10, donor pH 8.2, acceptor pH 7.4, 16 h
[17] = C10, donor pH 9.32, acceptor pH 7.4, 16 h
[18] = pH 7.4, C10 membrane, incubation time 16 h, pH 7.4 donor and acceptor, 25°C
[19] = C12, donor pH 4.6, acceptor pH 7.4, 16 h
[20] = C12, donor pH 4.98, acceptor pH 7.4, 16 h
[21] = C12, donor pH 8.2, acceptor pH 7.4, 16 h
[22] = C12, donor pH 9.32, acceptor pH 7.4, 16 h
[23] = C12, donor pH 6.57, acceptor pH 7.4, 16 h
[24] = pH 7.4, C12 membrane, incubation time 16 h, pH 7.4 donor and acceptor, 25°C

| SMILES | P e [1, 7] | P e [1, 8] | Papp at 16 h [1, 9] | Papp at 16 h [1, 12] | P e [2, 13] | P e [2, 14] | Papp at 16 h [2, 15] | Papp at 16 h [2, 18] | P e [3, 19] | P e [3, 20] | P e [3, 21] | P e [3, 22] | Papp at 16 h [3, 24] | Water solubility [4] | P e [1, 11] | P e [2, 16] | P e [2, 17] | P e [3, 23] | P e [1, 10] | P e [2, 15] | further results |
| --- | --- | --- | --- | --- | --- | --- | --- | --- | --- | --- | --- | --- | --- | --- | --- | --- | --- | --- | --- | --- | --- |
| CN/C(=N/CCSCc1nc[nH]c1C)NC#N [Cimetidine] | 2.6 ×10^–6 cm/s | 3.2 ×10^–6 cm/s | 1.8 ×10⁻⁶ cm/s | 2.6 ± 0.4 ×10⁻⁶ cm/s | 1.8 ×10^–6 cm/s | 2.6 ×10^–6 cm/s | 1.9 ×10⁻⁶ cm/s | 2.8 ± 0.3 ×10⁻⁶ cm/s | 1.8 ×10^–6 cm/s | 1.9 ×10^–6 cm/s | 3.2 ×10^–6 cm/s | 3.4 ×10^–6 cm/s | 3.2 ± 0.3 ×10⁻⁶ cm/s | 9380 mg | – | – | – | – | – | – | Papp at 16 h [1, 10]: 1.6 ×10⁻⁶ cm/s; Papp at 16 h [1, 11]: 3.7 ×10⁻⁶ cm/s; Papp at 16 h [2, 16]: 3.1 ×10⁻⁶ cm/s; Papp at 16 h [2, 17]: 3.4 ×10⁻⁶ cm/s; Papp at 16 h [3, 23]: 2.7 ×10⁻⁶ cm/s; pKa (first value listed) [5]: 7.23; %FA (human fraction absorbed) [6]: 85% |
| CCn1cc(C(=O)O)c(=O)c2cc(F)c(N3CCNCC3)cc21 [Norfloxacin] | – | 2.5 ×10^–6 cm/s | 1.9 ×10⁻⁶ cm/s | 0.9 ± 0.1 ×10⁻⁶ cm/s | 1.9 ×10^–6 cm/s | – | 2.2 ×10⁻⁶ cm/s | 1 ± 0.1 ×10⁻⁶ cm/s | – | 2.2 ×10^–6 cm/s | 2.6 ×10^–6 cm/s | 2.2 ×10^–6 cm/s | – | 178000 mg | 2.2 ×10^–6 cm/s | 2.5 ×10^–6 cm/s | 2.3 ×10^–6 cm/s | 2.6 ×10^–6 cm/s | – | – | Papp at 16 h [1, 10]: 2.3 ×10⁻⁶ cm/s; Papp at 16 h [1, 7]: 2.6 ×10⁻⁶ cm/s; Papp at 16 h [2, 14]: 2.5 ×10⁻⁶ cm/s; P e ([3]; C12 membrane, incubation time 16 h, pH 7.4 donor and acceptor, 25°C): 1.0±0.1 10^−6 cm/s; Papp at 16 h [3, 19]: 1.8 ×10⁻⁶ cm/s; pKa (first value listed) [5]: 6.26 |
| CC1(C)S[C@@H]2[C@H](NC(=O)[C@H](N)c3ccc(O)cc3)C(=O)N2[C@H]1C(=O)O [Amoxicillin] | 2.6 ×10^–7 cm/s | 2.4 ×10^–7 cm/s | – | 4.6 ± 0.4 ×10⁻⁶ cm/s | 1.9 ×10^–7 cm/s | 2.5 ×10^–7 cm/s | – | 5.3 ± 0.3 ×10⁻⁶ cm/s | 1.9 ×10^–7 cm/s | 2.1 ×10^–7 cm/s | 2.3 ×10^–7 cm/s | 2.0 ×10^–7 cm/s | 5.7 ± 0.4 ×10⁻⁶ cm/s | – | 2.2 ×10^–7 cm/s | 2.3 ×10^–7 cm/s | 2.2 ×10^–7 cm/s | 2.6 ×10^–7 cm/s | 2.1 ×10^–7 cm/s | 2.1 ×10^–7 cm/s | P e [1, 9]: 1.9 ×10^–7 cm/s; pKa (second value listed) [5]: 7.31; pKa (third value listed) [5]: 9.53; %FA (human fraction absorbed) [6]: 93% |
| CN(C)C(=N)N=C(N)N [Metformin Hydrochloride] | 3.2 ×10^–7 cm/s | 4.9 ×10^–7 cm/s | – | 2.4 ± 0.4 ×10⁻⁶ cm/s | 1.5 ×10^–7 cm/s | 3.2 ×10^–7 cm/s | – | 2.9 ± 0.3 ×10⁻⁶ cm/s | 1.6 ×10^–7 cm/s | 1.7 ×10^–7 cm/s | 4.9 ×10^–7 cm/s | 7.3 ×10^–7 cm/s | 3.4 ± 0.2 ×10⁻⁶ cm/s | – | 7.4 ×10^–7 cm/s | 5.8 ×10^–7 cm/s | 7.2 ×10^–7 cm/s | 3.1 ×10^–7 cm/s | 1.6 ×10^–7 cm/s | 1.6 ×10^–7 cm/s | P e [1, 9]: 1.5 ×10^–7 cm/s |
| CNC(=C[N+](=O)[O-])NCCSCc1ccc(CN(C)C)o1 [Ranitidine] | 3.2 ×10^–7 cm/s | 4.9 ×10^–7 cm/s | – | 1.2 ± 0.1 ×10⁻⁶ cm/s | 1.6 ×10^–7 cm/s | 3.1 ×10^–7 cm/s | – | 1.4 ± 0.1 ×10⁻⁶ cm/s | 1.6 ×10^–7 cm/s | 1.8 ×10^–7 cm/s | 4.9 ×10^–7 cm/s | 5.4 ×10^–7 cm/s | 1.5 ± 0.1 ×10⁻⁶ cm/s | 24.7 mg | – | 5.8 ×10^–7 cm/s | 5.5 ×10^–7 cm/s | 3.2 ×10^–7 cm/s | 1.8 ×10^–7 cm/s | 1.8 ×10^–7 cm/s | P e [1, 9]: 1.6 ×10^–7 cm/s; %FA (human fraction absorbed) [6]: 55% |
| COCCc1ccc(OCC(O)CNC(C)C)cc1 (centres unmarked) [Metoprolol Tartrate] | 5.1 ×10^–5 cm/s | 8.0 ×10^–5 cm/s | – | 9.2 ± 0.6 ×10⁻⁶ cm/s | 1.4 ×10^–5 cm/s | 5.3 ×10^–5 cm/s | – | 10.3 ± 0.5 ×10⁻⁶ cm/s | 1.6 ×10^–5 cm/s | 2.6 ×10^–5 cm/s | 8.0 ×10^–5 cm/s | 9.1 ×10^–5 cm/s | 11.7 ± 0.5 ×10⁻⁶ cm/s | 16900 mg | 8.9 ×10^–5 cm/s | 7.5 ×10^–5 cm/s | 9.3 ×10^–5 cm/s | 5.0 ×10^–5 cm/s | 2.7 ×10^–5 cm/s | 2.5 ×10^–5 cm/s | – |
| O=C(N[C@H](CO)[C@H](O)c1ccc([N+](=O)[O-])cc1)C(Cl)Cl [Chloroamphenicol] | – | – | 4.3 ×10⁻⁶ cm/s | 8.8 ± 0.2 ×10⁻⁶ cm/s | – | – | 4 ×10⁻⁶ cm/s | 9.8 ± 0.3 ×10⁻⁶ cm/s | – | 4.2 ×10^–6 cm/s | 0.7 ×10^–6 cm/s | 0.5 ×10^–6 cm/s | 14.6 ± 0.3 ×10⁻⁶ cm/s | – | – | – | 0.5 ×10^–6 cm/s | – | 4.2 ×10^–6 cm/s | – | Papp at 16 h [1, 7]: 1.7 ×10⁻⁶ cm/s; Papp at 16 h [1, 8]: 0.6 ×10⁻⁶ cm/s; Papp at 16 h [1, 11]: 0.5 ×10⁻⁶ cm/s; Papp at 16 h [2, 13]: 4.2 ×10⁻⁶ cm/s; Papp at 16 h [2, 14]: 1 ×10⁻⁶ cm/s; Papp at 16 h [2, 16]: 0.7 ×10⁻⁶ cm/s; Papp at 16 h [3, 19]: 4.4 ×10⁻⁶ cm/s; Papp at 16 h [3, 23]: 1.5 ×10⁻⁶ cm/s; pKa (first value listed) [5]: 4.3 |
| CC(C)Cc1ccc(C(C)C(=O)O)cc1 (centres unmarked) [Ibuprofen] | – | – | 23 ×10⁻⁶ cm/s | 13.9 ± 0.5 ×10⁻⁶ cm/s | 23.0 ×10^–6 cm/s | – | 22 ×10⁻⁶ cm/s | 14.5 ± 0.5 ×10⁻⁶ cm/s | – | 23.0 ×10^–6 cm/s | 1.5 ×10^–6 cm/s | 2.6 ×10^–6 cm/s | 16.7 ± 0.4 ×10⁻⁶ cm/s | 21 mg | – | – | 2.6 ×10^–6 cm/s | – | – | – | Papp at 16 h [1, 10]: 23.5 ×10⁻⁶ cm/s; Papp at 16 h [1, 7]: 8.5 ×10⁻⁶ cm/s; Papp at 16 h [1, 8]: 3 ×10⁻⁶ cm/s; Papp at 16 h [1, 11]: 2.6 ×10⁻⁶ cm/s; Papp at 16 h [2, 14]: 7 ×10⁻⁶ cm/s; Papp at 16 h [2, 16]: 1.5 ×10⁻⁶ cm/s; Papp at 16 h [3, 19]: 22.5 ×10⁻⁶ cm/s; Papp at 16 h [3, 23]: 7.5 ×10⁻⁶ cm/s |

— paper PMC4315410, “A New PAMPA Model Proposed on the Basis of a Synthetic Phospholipid Membrane” (PLoS ONE, 2015)
